Measured values: PubChem BioAssay AID651788 (The Scripps Research Institute Molecular Screening Center, 2012)
Active and inactive are the calls of the source.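 Rule for the calls: active = IC50 for SRC3 coactivator inhibition, the dose giving half inhibition, at or below 10 µM; inactive = IC50 above 10 µM.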

Biological target: Nuclear receptor coactivator 3 (Homo sapiens) (UniProt Q9Y6Q9)
Assay: SRC3 (NCOA3) coactivator inhibitors, late-stage follow-up, cell-based, HEK293, GAL4-SRC3 luciferase, powder samples (AID 651788)
Details: HEK293 GAL4-SRC3 luciferase reporter, luminescence

Sequence of Nuclear receptor coactivator 3 (Homo sapiens) (Q9Y6Q9 whole entry, looked up, the tested form may be a part): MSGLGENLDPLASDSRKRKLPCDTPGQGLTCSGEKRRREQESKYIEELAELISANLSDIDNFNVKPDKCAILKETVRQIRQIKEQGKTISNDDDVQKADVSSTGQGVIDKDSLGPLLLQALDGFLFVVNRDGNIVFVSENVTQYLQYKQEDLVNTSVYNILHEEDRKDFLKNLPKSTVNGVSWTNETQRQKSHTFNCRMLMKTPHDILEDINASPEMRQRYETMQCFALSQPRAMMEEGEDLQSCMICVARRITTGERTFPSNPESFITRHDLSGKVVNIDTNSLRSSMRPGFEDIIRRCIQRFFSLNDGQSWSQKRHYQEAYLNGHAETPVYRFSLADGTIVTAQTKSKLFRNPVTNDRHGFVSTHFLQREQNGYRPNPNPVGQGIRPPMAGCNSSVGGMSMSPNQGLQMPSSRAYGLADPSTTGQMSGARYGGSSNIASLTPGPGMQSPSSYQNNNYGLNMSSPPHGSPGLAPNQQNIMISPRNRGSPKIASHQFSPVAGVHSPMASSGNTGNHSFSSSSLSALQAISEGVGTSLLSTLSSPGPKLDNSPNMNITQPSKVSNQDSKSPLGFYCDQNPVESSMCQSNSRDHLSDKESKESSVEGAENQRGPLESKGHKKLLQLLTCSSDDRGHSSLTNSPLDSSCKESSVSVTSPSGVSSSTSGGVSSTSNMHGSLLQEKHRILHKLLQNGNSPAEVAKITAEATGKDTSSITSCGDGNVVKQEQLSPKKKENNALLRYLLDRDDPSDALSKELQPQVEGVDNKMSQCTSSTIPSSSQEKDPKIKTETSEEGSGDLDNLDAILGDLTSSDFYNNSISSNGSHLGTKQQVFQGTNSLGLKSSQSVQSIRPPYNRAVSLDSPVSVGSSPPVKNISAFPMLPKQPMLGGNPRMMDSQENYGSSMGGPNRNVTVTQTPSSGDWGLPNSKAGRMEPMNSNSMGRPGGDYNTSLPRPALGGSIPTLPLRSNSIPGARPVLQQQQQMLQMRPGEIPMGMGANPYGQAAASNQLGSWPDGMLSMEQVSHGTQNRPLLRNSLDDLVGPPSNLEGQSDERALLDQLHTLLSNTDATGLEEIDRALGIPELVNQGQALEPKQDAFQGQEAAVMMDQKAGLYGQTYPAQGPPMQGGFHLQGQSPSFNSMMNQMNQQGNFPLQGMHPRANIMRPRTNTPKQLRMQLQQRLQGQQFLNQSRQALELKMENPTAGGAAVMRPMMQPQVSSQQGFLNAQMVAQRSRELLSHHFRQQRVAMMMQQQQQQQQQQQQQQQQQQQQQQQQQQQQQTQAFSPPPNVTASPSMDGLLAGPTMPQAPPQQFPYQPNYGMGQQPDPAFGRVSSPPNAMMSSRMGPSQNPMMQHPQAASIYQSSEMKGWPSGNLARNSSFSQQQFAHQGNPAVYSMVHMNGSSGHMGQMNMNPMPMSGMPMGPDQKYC

Row | IC50 | SMILES
1 | 5.74 µM | CN1C(=O)C2(C(C#N)=C(N)N(c3cc(Cl)cc(Cl)c3)C3=C2C(=O)CCC3)c2ccccc21 (stereo not drawn)
2 | 8.32 µM | O=C(COC(=O)c1ccc[nH]c1=O)Nc1ccc(N2CCCCC2)cc1
3 | inactive | Cc1ccc(OCC(=O)c2cc(C)n(-c3ccccc3)c2C)c([N+](=O)[O-])n1
4 | 4.44 µM | CN1C(=O)C2(C(C#N)=C(N)N(c3cc(Cl)cc(Cl)c3)C3=C2C(=O)CC(C)(C)C3)c2ccccc21 (stereo not drawn)
5 | 3.96 µM | CCCNC(=O)c1nnsc1S(=O)(=O)c1ccc(Cl)cc1
6 | > 12 µM (inactive) | CC(C)(C)c1ccc(-c2noc(CCC(=O)Nc3cccnc3)n2)cc1
7 | 3.1 µM | O=C(Nc1ccccc1Oc1ccccc1)c1cc([N+](=O)[O-])ccc1Cl
8 | 4.97 µM | OCCN1CCN(C(=S)c2ccc(-c3ccccc3)cc2)CC1
